According to patent publication EP1859794A1, “Sustained release supplements” (priority 2006, dated 2007):

Columns and labels:
[1] = FTNIR / HPLC analysis of creatine and creatinine, as is or dry basis; assay type: physicochemical; details: before digestion simulation
Experimental: Tests on the coated Tablet prepared as described in Example 2 but with addition of 6% by tablet weight of PV/AP, creatine monohydrate powder and capsules of creatine monohydrate were carried out
These tests were done on an "AS IS or DRY BASIS.
Identification performed by FINIR, against in-house external library standards obtained from Sigma & produced by HPLC. / Quantification by FTNIR against external library standards obtained from Sigma & produced by HPLC
Bran & Luebbe InfraProver II FTNIR
Analysis performed by HPLC using Intersil ODS-2 5um (250x4.dmm) and 25 min. gradient elution with 0.1% phosphoric acid buffer in H2O and 0.1% phosphoric acid in acetonitrile. External reference standards obtained from Sigma-Aldrich.

[2] = Digestion simulation in stomacher at pH 3 for 60 minutes, total creatine and creatinine levels; assay type: physicochemical
Experimental: 1 capsule of creatine (500 mg) and 500 mg of powder was used along with 1 tablet of 500 mg of Sustained Released Creatine.
All 3 products were placed in a stomacher at pH 3 for 60 minutes to simulate digestion. Stomacher contained 1 liter of fluid with pH being adjusted with hydrochloric acid to simulate digestion.
After 60 minutes of digestion simulation in stomacher, all 3 products were tested for: • Total Creatine levels • Total Creatinine levels

[3] = Stamina and strength of athletes taking creatine (free weights and hammer strength machines); assay type: in vivo, human; details: two subjects
Experimental: Week 1-4: Two subjects were administered creatine monohydrate in powder form for four weeks. 2 grams were taken in the A.M. before breakfast.
No changes were made to diet and athletes were working out 4 times per week.
Stamina & Strength levels were monitored at the beginning of the study and every workout for 4 weeks.
A combination of free weights and hammer strength machines were used.
Week 5-8. Athletes discontinued creatine use. After 1 week the stomach bloat, bloating of the ankles and wrist, along with diarrhea and loose stools disappeared. About a 1% increase in strength was again noticed by the end of week 8, due to old fashioned hard work.
Week 9-12. Athletes were administered one 750 mg sustained released tablet in the a.m. and one 750 mg tablet in the afternoon. The breakdown of these tablets were 9 hours.

physchem = assay type: physicochemical; details: simulated gastric solution, pH 4
Experimental: TABLE 2 Change in creatine with time at pH 4
The determination was based upon formation of creatinine under buffered incubation conditions. A solution of 1% creatine in simulated gastric solution (0.5% betain/pepsin in 1M HEPES buffer pH controlled with 5M HC1 and 5N NaOH). Creatinine determination performed by PDA spectrophotometer in kinetic mode, scanning at 15 sec intervals with an integration time of 0.5 sec. Detection in 1 cm path length flow call at 37°C with test analyte flowing at 1 ml/min. Reagents obtained from Sigma-Aldrich.

[4] = 2 grams in the A.M. before breakfast, week 1-4

## CN(CC(=O)O)C(=N)N.O [Creatine Powder, creatine monohydrate]
[1]
  Creatine: Creatine 100.1%
  Creatinine: Creatinine <200ppm
[2]; 500 mg elemental creatine added to stomacher at pH 3, 1 liter of fluid
  pH of Stomacher after addition of product: 3.5
[2]; 500 mg, stomacher at pH 3, 60 minutes
  creatine converted to creatinine after 60 minutes (in words): all creatine being converted to creatinine
[2]; acidified fluid, 500 mg elemental creatine, stomacher at pH 3, 60 minutes, read-out: Total conversion to Creatinine after 60 minutes of digestion
  degraded at 1 h: 100%
[3]; [4]
  side effects: Stomach bloating, bloating of the ankles and wrist, along with diarrhea and loose stools
  stamina increase: did not notice any stamina increase
[3]; 2 grams in the A.M. before breakfast, week 1-4, not attributed to creatine
  increase in strength: ~1%
[3]; 2 grams in the A.M., week two through week four
  over all sense of tiredness: set in after week two and lasted through week four

## CN(CC(=O)O)C(=N)N [creatine]
physchem
  remaining at 15 s: 94%
  remaining at 0.5 min: 86%
  remaining at 45 s: 75%
  remaining at 1 min: 66%
  remaining at 75 s: 57%
  remaining at 0.025 h: 49%
  remaining at 105 s: 38%
  remaining at 2 min: 31%
  remaining at 135 s: 21%
  remaining at 2.5 min: 16%
  remaining at 165 s: 6%
  remaining at 0.05 h: 0.5%
